Experimental data as given in ChEMBL document CHEMBL2203166, “Small Molecule Ligands For Active Targeting Of TrkC-expressing Tumor Cells” (ACS Med Chem Lett, 2012).
Active and inactive are the calls of the source. No cut-off for these calls is given here.

What was measured:
[1] = Cytotoxicity against CHO cells; assay type: cell-based, Cricetulus griseus; conditions: chinese hamster, read-out: ED50 (the source's name)
[2] = test system: NIH3T3; test: Cytotoxicity against mouse NIH/3T3 cells after 56 to 60 hrs by MTT assay; assay type: cell-based; conditions: for Activity: mouse, nih3t3; for IC50: Mus musculus, NIH3T3
[3] = test system: NIH3T3; test: Cytotoxicity against mouse NIH/3T3 cells expressing TrkC receptor after 56 to 60 hrs by MTT assay; assay type: functional, cell-based
[4] = test system: NIH3T3; test: Cytotoxicity against mouse NIH/3T3 cells after 56 to 60 hrs by MTT assay in presence of 3.5 nM of growth factor NT3; assay type: cell-based
[5] = test system: NIH3T3; test: Cytotoxicity against mouse NIH/3T3 cells after 56 to 60 hrs by MTT assay in presence of 20 uM of IY-IY-TEG; assay type: cell-based
[6] = test system: NIH3T3; test: Cytotoxicity against mouse NIH/3T3 cells expressing TrkC receptor after 56 to 60 hrs by MTT assay in presence of 3.5 nM of growth factor NT3; assay type: functional, cell-based
[7] = test system: NIH3T3; test: Cytotoxicity against mouse NIH/3T3 cells expressing TrkC receptor after 56 to 60 hrs by MTT assay in presence of 20 uM of IY-IY-TEG; assay type: functional, cell-based
[8] = test system: 4T1; test: Cytotoxicity against mouse 4T1 cells expressing TrkC receptor after 30 hrs by Calcein-AM assay; assay type: functional, cell-based; conditions: 4T1, 30 h
[9] = test system: MCF7; test: Cytotoxicity against human MCF7 cells; assay type: functional, cell-based
[10] = Mus musculus, NIH3T3, read-out: IC50

SMILES: CCCCn1cnc2c(=S)nc[nH]c21
- CC50 [1]: 400 µM

SMILES: CCn1cnc2c(=S)nc[nH]c21
- CC50 [1]: 600 µM

SMILES: CC[C@H](C)[C@H](N)c1cn([C@@H](Cc2ccc(O)cc2)C(=O)N2CCN(c3nc(NCCOCCOCCOCc4cn(CCOCCOCCn5cnc6c(=S)nc[nH]c65)nn4)nc(N4CCN(C(=O)[C@H](Cc5ccc(O)cc5)n5cc([C@@H](N)[C@@H](C)CC)nn5)CC4)n3)CC2)nn1
- Activity [2]: Non-toxic
- IC50 ([3]; nih3t3): Active

SMILES: CC[C@H](C)[C@@H](C(=O)N1CCN(c2nc(NCCOCCOCCOCc3cn(CC#Cc4ccc(-c5c6ccc(=[N+]7CCCCC7)cc-6oc6cc(N7CCCCC7)ccc56)cc4)nn3)nc(N3CCN(C(=O)[C@H]([C@@H](C)CC)n4cc([C@@H](N)Cc5ccc(O)cc5)nn4)CC3)n2)CC1)n1cc([C@@H](N)Cc2ccc(O)cc2)nn1
- Activity [4]: Toxic
- IC50 [2]: 25.8 µM
- Activity [5]: Toxic
- Activity [6]: Active
- Activity [7]: Active
- IC50 [3, 10]: 25.8 µM

SMILES: C#CCOCCOCCOCCNc1nc(N2CCN(C(=O)[C@H](Cc3ccc(O)cc3)n3cc([C@@H](N)[C@@H](C)CC)nn3)CC2)nc(N2CCN(C(=O)[C@H](Cc3ccc(O)cc3)n3cc([C@@H](N)[C@@H](C)CC)nn3)CC2)n1
- Activity [2]: Non-toxic
- IC50 ([3]; nih3t3): Not Active

SMILES: CC[C@H](C)[C@H](N)c1cn([C@@H](Cc2ccc(O)cc2)C(=O)N2CCN(c3nc(NCCOCCOCCOCc4cn(CC#Cc5ccc(-c6c7ccc(=[N+]8CCCCC8)cc-7oc7cc(N8CCCCC8)ccc67)cc5)nn4)nc(N4CCN(C(=O)[C@H](Cc5ccc(O)cc5)n5cc([C@@H](N)[C@@H](C)CC)nn5)CC4)n3)CC2)nn1
- Activity [4]: Toxic
- IC50 [2]: 27.6 µM
- Activity [5]: Toxic
- Activity [6]: inactive
- Activity [7]: inactive
- IC50 [3, 10]: 15.8 µM
- IC50 [8]: 19.9 µM

SMILES: Sc1ncnc2nc[nH]c12 [MERCAPTOPURINE ANHYDROUS]
- IC50 [9]: 2.79 µM
- CC50 [1]: 50 µM

SMILES: S=c1nc[nH]c2c1ncn2CCOCCOCCn1cc(COCCOCCOCCNc2nc(N3CCOCC3)nc(N3CCOCC3)n2)nn1
- Activity [2]: Non-toxic
- IC50 ([3]; nih3t3): Not Active

SMILES: CN(C)c1ccc2c(-c3ccccc3)c3ccc(N(C)C)cc3[o+]c2c1 [ROSAMINE]
- IC50 [9]: 0.39 µM
